Test results: publication PMC8178126, “Evaluation of the available cholesterol concentration in the inner leaflet of the plasma membrane of mammalian cells” (Journal of Lipid Research, 2021)

Biological target: T1, Osh4-Δ1-40 (template of Osh4-Δ1-40(K109A) and eOsh4) (Saccharomyces cerevisiae, UniProt P35844, K109A)
T1 construct: gene KES1; N-terminal lid (aa 1-40) removed; pET-30a, N- and C-terminal His6 tags (printed for eOsh4), E. coli BL21 RIL codon plus
Assay: SPR (BIACORE X-100, L1 chip, immobilised LUVs, equilibrium Req)
Type: binding
Details: apparent, 20 mM Tris pH 7.4, 0.16 M NaCl, 23 °C

SMILES | Kd (protein concentration at half-maximal binding to POPC/POPS/25HC 75:20:5 LUVs (Fig. 3D legend 77:20:5)) | Kd (protein concentration at half-maximal binding to POPC/POPS/cholesterol 75:20:5 LUVs (Fig. 3D legend 77:20:5))
C[C@H](CCCC(C)(C)O)[C@H]1CC[C@H]2[C@@H]3CC=C4C[C@@H](O)CC[C@]4(C)[C@H]3CC[C@]12C [25-hydroxycholesterol] | 800 ± 130 nM | 
CC(C)CCC[C@@H](C)[C@H]1CC[C@H]2[C@@H]3CC=C4C[C@@H](O)CC[C@]4(C)[C@H]3CC[C@]12C [cholesterol] |  | 100 ± 16 nM
